23 compounds from patent US20110053916A1 (Vertex Pharmaceuticals Incorporated, priority 2009, published 2011) can be followed below.

The test system of assay [1] is Mycobacterium tuberculosis H37Ra. In words: Mycobacterium tuberculosis growth inhibition assay (microtiter dilution, resazurin reduction). The class given is cell-based. Particulars: 7H9 broth, 9 days + 24 h resazurin, lowest concentration inhibiting resazurin reduction by >70%, several symbols in a cell = repeat determinations. The procedure: Compounds were screened for their ability to inhibit the growth of Mycobacterium tuberculosis H37Ra using a standard microtiter dilution method with reduction of the dye resazurin as an indicator of growth. The growth assay was carried out in standard Mycobacterium liquid growth medium, 7H9Broth (BD Biosciences, Franklin Lakes, N.J.) supplemented with 10% ADC enrichment (BD Biosciences, Franklin Lakes, N.J.). The medium was inoculate with ˜1×10^6 cells/milliliter of Mycobacterium tuberculosis H37Ra grown on a the surface of a growth medium solid medium (7H11 agar [BD Biosciences, Franklin Lakes, N.J.] supplemented with 10% OADC enrichment [BD Biosciences, Franklin Lakes, N.J.]).
Two-fold serial dilutions (either 7 or 11-step series) of test compounds in DMSO were dispensed into 96-well assay plates (sterile, black sided, clear bottom wells) in a volume of 1 microliter. One microliter of DMSO was dispensed into a control well at the end of each series. One-hundred microliters of the bacterial cell suspension in growth medium was dispensed into each test well containing a DSMO solution of compound. The assay plates were covered with a fitted lid and incubated at 37° C. in a humidified chamber for 9 days. On the ninth day 30 microliters of a 0.01% solution of resazurin (Sigma Chemical Co., St. Louis, Mo.) in distilled water was added to each well and the baseline fluorescence of resazurin was determined by measuring well fluorescence at an excitation wavelength of 492 nm and an emission wavelength of 595 nm on a Spectrafluor Plus (Tecan, Durham, N.C.) instrument. The assay plates were returned to the incubation chamber for 24 hours. After 24 hours, the fluorescence of the wells (resulting from the reduction of resazurin dye) was measured at an excitation wavelength of 492 nm and an emission wavelength of 595 nm on the Spectrafluor Plus instrument. The minimum inhibitory concentration (MIC) was called as the lowest concentration of compound that inhibited the reduction of resazurin by >70%, as compared to the DMSO (untreated) control wells. MIC values are represented as the following values: • A* <1.6 μM • A 1.6 μM<12.5 μM • B** 12.5 μM-25.0 μM • B* 25.0 μM-50.0 μM • B 50.0 μM-100.0 μM • C >100.0 μM
In general terms: Resazurin is reduced to fluorescent resorufin, in cell work by metabolically active cells.

Another assay has as its target T1, PknB (Mycobacterium tuberculosis, UniProt P9WI81).
T1 construct: made in house
Briefly: biochemical. Set-up: species or system M. tuberculosis. Particulars: 3 nM PknB, 6 uM GarA, 3 μM ATP, 30 min, competitive tight-binding fit, several symbols in a cell = repeat determinations; for Ki: read-out: Ki Values.

T1 sequence (P9WI81 whole entry): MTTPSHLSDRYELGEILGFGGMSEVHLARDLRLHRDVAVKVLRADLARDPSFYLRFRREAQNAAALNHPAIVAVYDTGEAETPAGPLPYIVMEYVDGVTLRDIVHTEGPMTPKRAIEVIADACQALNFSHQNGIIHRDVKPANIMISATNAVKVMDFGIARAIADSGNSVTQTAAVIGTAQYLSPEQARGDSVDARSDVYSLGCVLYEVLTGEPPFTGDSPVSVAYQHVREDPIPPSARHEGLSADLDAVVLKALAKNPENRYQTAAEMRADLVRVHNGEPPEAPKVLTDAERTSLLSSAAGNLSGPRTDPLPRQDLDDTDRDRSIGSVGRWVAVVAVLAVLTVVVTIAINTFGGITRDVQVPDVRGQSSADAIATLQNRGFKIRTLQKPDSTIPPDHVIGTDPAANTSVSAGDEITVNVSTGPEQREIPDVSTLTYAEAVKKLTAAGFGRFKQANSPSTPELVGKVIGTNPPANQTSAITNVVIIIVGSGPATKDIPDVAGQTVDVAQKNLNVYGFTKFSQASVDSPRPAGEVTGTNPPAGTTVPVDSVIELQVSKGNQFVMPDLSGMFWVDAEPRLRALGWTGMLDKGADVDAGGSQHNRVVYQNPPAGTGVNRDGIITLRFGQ

As a reminder, the Ki is the dissociation constant of the complex between target and ligand, obtained from inhibition or displacement. Turning to `OCc1ccc(-c2ncc(Cl)c(Nc3cc(C4CC4)[nH]n3)n2)s1` [Compound 25, [5-[5-chloro-4-[(5-cyclopropyl-1H-pyrazol-3-yl)amino]-pyrimidin-2-yl]-2-thienyl]methanol], the MIC values result in assay [1] is given as “B+”. Further, the Ki at PknB is 10 to 50 nM.
In the case of `CC(=O)c1ccc(-c2nccc(Nc3cc(C4CC4)[nH]n3)n2)cc1` [Compound 308, 1-[4-[4-[(5-cyclopropyl-1H-pyrazol-3-yl)amino]pyrimidin-2-yl]phenyl]ethanone], in assay [1], the MIC values entry is “B+”. Also, on PknB, the Ki was 10 to 50 nM.
`C#Cc1cnc(-c2ccc(C(C)(C)C#N)s2)nc1Nc1cc(C2CC2)[nH]n1` [Compound 237, 2-[5-[4-[(5-cyclopropyl-1H-pyrazol-3-yl)amino]-5-ethynyl-pyrimidin-2-yl]-2-thienyl]-2-methyl-propanenitrile]: in assay [1], the MIC values entry is given as “B++”. Besides, on PknB, the Ki lay within 1 to 10 nM.
For `Cc1cc(Nc2cc(C3CC3)[nH]n2)nc(-c2ccc(S(N)(=O)=O)s2)n1` [Compound 265, 5-[4-[(5-cyclopropyl-1H-pyrazol-3-yl)amino]-6-methyl-pyrimidin-2-yl]thiophene-2-sulfonamide], the MIC values entry in assay [1] is listed as “B++”. Further, the Ki on PknB was in the range of 1 to 10 nM.
On to `C#Cc1cnc(-c2ccc(C(C)=O)s2)nc1Nc1cc(C2CC2)[nH]n1` [Compound 111, 1-(5-(4-(5-Cyclopropyl-1H-pyrazol-3-ylamino)-5-ethynylpyrimidin-2-yl)thiophen-2-yl)ethanone], for which the MIC values entry in assay [1] is given as “B++, B”. Besides, the “Ki Values” at PknB is reported as “A**, A*”.
For `C#Cc1cnc(N2CC[C@@H](NC(=O)OC(C)(C)C)C2)nc1Nc1cc(C2CC2)n[nH]1` [Compound 173, tert-butyl [[1-[4-[(5-cyclopropyl-2H-pyrazol-3-yl)amino]-5-ethynyl-pyrimidin-2-yl]pyrrolidin-3-yl]amino]formate], the MIC values entry in assay [1] is listed as “B+”. Further, on PknB, the “Ki Values” is on record as “B, C”.
Regarding `NS(=O)(=O)c1ccc(-c2nccc(Nc3cc(C4CC4)[nH]n3)n2)cn1` [Compound 301, 5-[4-[(5-cyclopropyl-1H-pyrazol-3-yl)amino]pyrimidin-2-yl]pyridine-2-sulfonamide], the MIC values entry in assay [1] is “B+”. The inhibitory constant (Ki) at PknB is 50 to 100 nM.
For the compound `CN(C)S(=O)(=O)c1ccc(Nc2nccc(Nc3cc(C4CC4)n[nH]3)n2)cc1` [Compound 103, 4-(4-(3-cyclopropyl-1H-pyrazol-5-ylamino)pyrimidin-2-ylamino)N,N-dimethylbenzenesulfonamide], the MIC values entry in assay [1] is on record as “B++, B+”. Besides, at PknB, the “Ki Values” is listed as “A**, A*”.
Regarding `O=S(=O)(NC1CCOCC1)c1ccc(-c2ncc(Cl)c(Nc3cc(C4CC4)[nH]n3)n2)s1` [Compound 148, 5-[5-chloro-4-[(5-cyclopropyl-1H-pyrazol-3-yl)amino]-pyrimidin-2-yl]-N-tetrahydropyran-4-yl-thiophene-2-sulfonamide], the MIC values result in assay [1] is recorded as “B, C”. Besides, on PknB, the “Ki Values” was “A, B**”.
For `NS(=O)(=O)c1ccc(-c2ncc(NC=O)c(Nc3cc(C4CC4)[nH]n3)n2)s1` [Compound 252, N-[4-[(5-cyclopropyl-1H-pyrazol-3-yl)amino]-2-(5-sulfamoyl-2-thienyl)-pyrimidin-5-yl]formamide], in assay [1], the MIC values entry is recorded as “B+”. On PknB, the inhibition constant (Ki) was 10 to 50 nM.
On to `COc1cnc(N2CCN(C)CC2)nc1Nc1cc(C2CC2)[nH]n1` [Compound 67, N-(5-cyclopropyl-1H-pyrazol-3-yl)-5-methoxy-2-(4-methylpiperazin-1-yl)-pyrimidin-4-amine], for which the MIC values result in assay [1] is given as “A+”. Moreover, on PknB, the Ki is 10 to 50 nM.
Turning to `Cc1cnc(-c2ccc(CO)s2)nc1Nc1cc(C2CC2)[nH]n1` [Compound 36, [5-[4-[(5-cyclopropyl-1H-pyrazol-3-yl)amino]-5-methyl-pyrimidin-2-yl]-2-thienyl]methanol], the MIC values result in assay [1] is “B++, B+”. In addition, at PknB, the Ki lay in the range of 50 to 100 nM.
For the compound `C#Cc1cnc(C2=CCN(C(=O)OC(C)(C)C)CC2)nc1Nc1cc(C2CC2)[nH]n1` [Compound 250, Tert-butyl 4-(4-(5-cyclopropyl-1H-pyrazol-3-ylamino)-5-ethynylpyrimidin-2-yl)-5,6-dihydropyridine-1(2H)-carboxylate], the MIC values result in assay [1] is on record as “B+”. Also, on PknB, the Ki was in the range of 100 to 500 nM.
Take `C#Cc1cnc(-c2ccc([C@H](C)O)s2)nc1Nc1cc(C2CC2)n[nH]1` [Compound 198, (S)-1-(5-(4-(3-cyclopropyl-1H-pyrazol-5-ylamino)-5-ethynylpyrimidin-2-yl)thiophen-2-yl)ethanol]: in assay [1], the MIC values result is recorded as “A, A, A, B++”. For the same compound, on PknB, the Ki was 1 to 10 nM.
Take `C#Cc1cnc(-c2ccc(S(=O)(=O)NC(C)(C)C)s2)nc1Nc1cc(C2CC2)n[nH]1` [Compound 115, N-tert-butyl-5-(4-(5-cyclopropyl-1H-pyrazol-3-ylamino)-5-ethynylpyrimidin-2-yl)thiophene-2-sulfonamide]: the MIC values entry in assay [1] is “B++, B+”. Moreover, at PknB, the Ki was in the range of 10 to 50 nM.
In the same order, the values of `Fc1cnc(-c2cccs2)nc1Nc1cc(C2CC2)[nH]n1` [Compound 41, N-(5-cyclopropyl-1H-pyrazol-3-yl)-5-fluoro-2-(thiophen-2-yl)pyrimidin-4-amine] are “B+” and 10 to 50 nM.
Regarding `O=[N+]([O-])c1csc(-c2ncc(Cl)c(Nc3cc(C4CC4)[nH]n3)n2)c1` [Compound 204, 5-chloro-N-(5-cyclopropyl-1H-pyrazol-3-yl)-2-(4-nitrothiophen-2-yl)pyrimidin-4-amine], the MIC values result in assay [1] was “B+”. Also, the Ki at PknB was in the range of 10 to 50 nM.
As for `N#CCc1ccc(-c2ncc(F)c(Nc3cc(C4CC4)[nH]n3)n2)cc1` [Compound 19, 2-(4-(4-(5-cyclopropyl-1H-pyrazol-3-ylamino)-5-fluoropyrimidin-2-yl)phenyl)acetonitrile], in assay [1], the MIC values entry is listed as “B, B, C, C”. On PknB, the Ki was in the range of 1 to 10 nM.
On the same counts, the results for `CNS(=O)(=O)c1ccc(-c2ncc(F)c(Nc3cc(C4CC4)[nH]n3)n2)s1` [Compound 43, 5-[4-[(5-cyclopropyl-1H-pyrazol-3-yl)amino]-5-fluoro-pyrimidin-2-yl]-N-methyl-thiophene-2-sulfonamide] are “B++” and 1 to 10 nM.
On the same counts, the results for `CC(=O)NCc1ccc(-c2ncc(Cl)c(Nc3cc(C4CC4)n[nH]3)n2)s1` [Compound 136, N-((5-(5-chloro-4-(3-cyclopropyl-1H-pyrazol-5-ylamino)pyrimidin-2-yl)thiophen-2-yl)methyl)acetamide] are “B+” and 10 to 50 nM.
In the same order, the values of `NS(=O)(=O)c1ccc(-c2ccc([N+](=O)[O-])c(Nc3cc(C4CC4)n[nH]3)n2)s1` [Compound 275, 5-[6-[(5-cyclopropyl-2H-pyrazol-3-yl)amino]-5-nitro-2-pyridyl]thiophene-2-sulfonamide] are “B++” and 1 to 10 nM.
With `OCc1cnc(-c2ccccc2)nc1Nc1cc(C2CC2)n[nH]1` [Compound 123, (4-(5-cyclopropyl-1H-pyrazol-3-ylamino)-2-phenylpyrimidin-5-yl)methanol], the MIC values entry in assay [1] was “B, C”. In addition, the Ki at PknB lay in the range of 100 to 500 nM.
As to `C#Cc1cnc(-c2ccc(S(N)(=O)=O)s2)nc1Nc1cc(C2CC2)n[nH]1` [Compound 114, 5-(4-(3-Cyclopropyl-1H-pyrazol-5-ylamino)-5-ethynylpyrimidin-2-yl)thiophene-2-sulfonamide], the MIC values entry in assay [1] is given as “A+, A”. Moreover, on PknB, the inhibitory constant (Ki) lay within 1 to 10 nM.
